“And” between values parts separate entries of the source, which are not always exact repeats. Identical values can stand only once. Like-named read-outs stand apart in the source and are kept apart here.
What was measured:
EZH2 [1] = target: T1, EZH2 (Homo sapiens, UniProt Q15910); test: EZH2 enzyme activity in protein extracts of human tumor xenografts of treated mice (EZH2 Assay Kit); type: in vivo; settings: tumors excised 6 h after medication, SAHA 25 mg/kg; for inhibition: read-out: decrease of EZH2 enzyme activity/inhibition rate
T1 construct: the EZH2 enzyme was replaced with tumor protein extracts in each group; from tissue; host or cells: human tumour xenografts excised from treated nude mice

EZH2 [2] = target: T2, EZH2 (Mus musculus, UniProt Q61188); test: EZH2 enzyme activity in protein extracts of LLC tumors of treated mice (EZH2 Assay Kit); settings: mouse; LLC tumor grown in vivo; tumors excised 6 h after medication; SAHA 25 mg/kg; read-out: decrease of EZH2 enzyme activity/inhibition rate
T2 construct: the EZH2 enzyme was replaced with tumor protein extracts in each group; from tissue; host or cells: Lewis lung cancer tumours from treated mice

[3] = system: human lung cancer cells A549; test: MTT growth inhibition, A549 cells; type: cell-based; settings: 72 h after treatment, read-out: Drug concentration (IC50) at which 50% cancer cells survived
Excerpt: (§1) Cell lines and cell culture: human lung cancer cells A549 and H460, human breast cancer cells MCF-7 and MDA-MB-231, human gastric cancer cells BGC-823, human prostate cancer cells PC-3, human chronic leukemia cells K562, human lymphoma cells U937, human liver cancer cells SMMC7721 and HepG2, human colon cancer cells HT29, human pancreatic cancer cells PANC-1 and BxPC3, human cervical cancer Hela cell lines, human brain tumor cells Daoy, human neuroma cells D54 and human oral epidermoid cancer cells KBV200 line with strong drug resistance, mouse melanoma cells B16, and highly metastatic Lewis lung cancer cell lines were purchased from American Type Culture Collection of the U.S. These cells were cultured with DMEM and RPMI-1640 culture solutions separately.
(§2) The procedure was as follows:
(§3) (1) 0.25% trypsin was used to digest cancer cells in a logarithmic growth phase to prepare a single-cell suspension, the concentration of cells was adjusted to 5×10^4/mL, and the adjusted suspension was inoculated into a 96-well culture plate with 100 μl per well;
(§4) (2) The culture plate was transferred into a 37° C. incubator with a saturated humidity and 5% of CO2 and cultured for 24 h; the compounds and the intermediates thereof obtained in embodiments 1-7 and the compound as represented by formula (IIIa) or the positive control anti-cancer drug with the concentration of 1-1000 μM/L were added to enable the final concentration to be 0.1-1500 μM/L. Control wells (only added with 200 μl of cell suspension) and drug-free blank control wells (containing the solvent of 0.01% DMSO) were set, each group included 8 wells, and the plate was placed into the 37° C. incubator with saturated humidity and 5% of CO2 for culturing;
(§5) (3) The 96-well plate was taken out at 48 h and 72 h after dosing, the original culture medium was carefully removed by suction, 100 μl of serum-free DMEM culture medium and 10 μl of MTT (5 mg/mL) solution were added in each well. The plate was continuously cultured for another 4 h and then the culture was terminated;
(§6) (4) The supernatant in the wells was carefully removed by suction, each well was added with 150 μl of DMSO and shaked at room temperature for 10-15 min to fully dissolve crystals.
(§7) (5) Colorimetric analysis: the wavelength was selected as 570 nm, the light absorbance (A value) of each well was determined on the microplate reader and the results were recorded; the experiment was repeated for three times;
(§8) (6) the experimental results were calculated according to the following formula: relative survival rate=(A value of each experimental group/A value of cell control group)×100%
(§9) Calculation of median-effect concentration (IC50, namely the drug concentration at which the inhibition rate is 50%, also known as half inhibitory concentration):
(§10) IC50 of the detected component was calculated by using a regression equation.

[4] = system: human breast cancer cells MDA-MB-231; test: MTT growth inhibition, MDA-MB-231 cells; type: cell-based; settings: 72 h after treatment, read-out: Drug concentration (IC50) at which 50% cancer cells survived
Excerpt: as §1, §2, §3, §4, §5, §6, §7, §8, §9, §10

[5] = system: human liver cancer cells SMMC7721; test: MTT growth inhibition, SMMC7721 cells; type: cell-based; settings: SMMC-7721, S-7721 (SMMC7721), 72 h after treatment, read-out: Drug concentration (IC50) at which 50% cancer cells survived
Excerpt: as §1, §2, §3, §4, §5, §6, §7, §8, §9, §10

[6] = system: human liver cancer cells HepG2; test: MTT growth inhibition, HepG2 cells; type: cell-based; settings: 72 h after treatment, read-out: Drug concentration (IC50) at which 50% cancer cells survived
Excerpt: as §1, §2, §3, §4, §5, §6, §7, §8, §9, §10

[7] = system: nucleoprotein factor NF-κB (p65)-DNA binding activity; test: NF-κB (p65)-DNA binding activity (EMSA); type: cell-based; settings: EMSA, nuclear protein extracts, 48 h, read-out: Effective concentration for 50% inhibition of binding of nucleoprotein factor NF-kB (p65) and DNA
Excerpt: The in-vitro experiment of the inhibitory effect against the NF-κB(p65)-DNA binding activity was applied with the chemiluminescent EMSA kit of Pierce Biotechnology Company of the U.S., the experimental method was strictly operated according to the description of the kit and the specific procedure were as follows:
(1) Preparation of EMSA gel
The cells treated by the drugs were extracted by the nucleoprotein extract solution (provided by Beyotime Biotechnology of Institute) to obtain the nucleoprotein extracts, and 10 μg/pipe of the nucleoprotein extracts were respectively used for sample reaction and electrophoresis detection and analysis shown in the following table.
(2) Pre-electrophoresis: the gel was fixed in an electrophoresis tank, which was filled with a 0.5×TBE electrophoresis buffer solution, and electrophoresed under 10V/cm for 90 min. The probe binding reaction was as follows:
The components were added in sequence into the EP pipe according to the above table, uniformly mixed and stood at room temperature for 15 min to eliminate possible non-specific binding of probe and protein. 1 μl of biotin-labeled probe NF-κB was respectively added and stood at room temperature for 20 min.
(4) Film transfer: the process of transferring the nucleoprotein factors and the binding probe on the EMSA gel to the nylon film was electrically transferred under 380 mA in ice bath for 40 min.
(5) Ultraviolet cross-linking: the nylon film was placed under a 254 nm ultraviolet lamp and irradiated for 15 min.
(6) Detection of the biotin-labeled probe by chemiluminescence: the cross-linked nylon film was blocked with the blocking solution, a treated film was subjected to X-ray exposure, developing, and fixation according to the requirements of the kit, and the results were analyzed.

p53 = test: Western Blotting, increase of p53 level; type: cell-based; settings: liver cancer cells, Lewis lung cancer cells and other cancer cell lines and tumor tissue protein lysates, 48 h treatment, read-out: Effective concentration to increase p53 by 50%
Excerpt: (§11) Antibodies: primary antibodies of VEGFR, EGFR, c-Met, K-Ras, H-Ras, Akt, NF-κB, Cyclin D1, ER-alpha, Dvl-1, Dvl-2, Dvl-3, MMP-9, MMP2, β-catenin, Bcl-2, Bax, p53, p21, E-cadherin and Caspase3 protein, purchased from American Cell Signaling Technology Company and Santa Cruz Technology Company; and H3 acetylation, H4 acetylation and HDAC (HDAC3, HDAC4 and the like) Antibody Sample Kits, purchased from Cell Signaling Technology Company of the U.S.
(§12) (3) polyacrylamide gel electrophoresis (SDS-PAGE): an equal amount of protein lysate sample was used to separate protein, film transfer, and blocking, treated with appropriate primary antibodies and secondary antibodies in sequence, and the film was washed, then the color was developed with ECL kit, and a blot protein band was detected by exposure of an X-ray film; and a Gel-Pro Analyzer was used for quantitative analysis of gray degree, optical density value of the control group and the drug treatment group in various concentration were respectively compared with that of internal reference, the obtained ratios were respectively compared with the control group, and the protein expression level was semi-quantified.

p21 = test: Western Blotting, increase of p21 level; type: cell-based; settings: liver cancer cells, Lewis lung cancer cells and other cancer cell lines and tumor tissue protein lysates, 48 h treatment, read-out: Effective concentration to increase p21 by 50%
Excerpt: as §11, §12

E-cadherin = test: Western Blotting, increase of E-cadherin level; type: cell-based; settings: liver cancer cells, Lewis lung cancer cells and other cancer cell lines and tumor tissue protein lysates, 48 h treatment, read-out: Effective concentration to increase E-cadherin by 50%
Excerpt: as §11, §12

Caspase3 = test: Western Blotting, increase of Caspase3 level; type: cell-based; settings: liver cancer cells, Lewis lung cancer cells and other cancer cell lines and tumor tissue protein lysates, 48 h treatment, read-out: Effective concentration to increase Caspase-3 by 50%
Excerpt: as §11, §12

T1 sequence (Q15910 whole entry): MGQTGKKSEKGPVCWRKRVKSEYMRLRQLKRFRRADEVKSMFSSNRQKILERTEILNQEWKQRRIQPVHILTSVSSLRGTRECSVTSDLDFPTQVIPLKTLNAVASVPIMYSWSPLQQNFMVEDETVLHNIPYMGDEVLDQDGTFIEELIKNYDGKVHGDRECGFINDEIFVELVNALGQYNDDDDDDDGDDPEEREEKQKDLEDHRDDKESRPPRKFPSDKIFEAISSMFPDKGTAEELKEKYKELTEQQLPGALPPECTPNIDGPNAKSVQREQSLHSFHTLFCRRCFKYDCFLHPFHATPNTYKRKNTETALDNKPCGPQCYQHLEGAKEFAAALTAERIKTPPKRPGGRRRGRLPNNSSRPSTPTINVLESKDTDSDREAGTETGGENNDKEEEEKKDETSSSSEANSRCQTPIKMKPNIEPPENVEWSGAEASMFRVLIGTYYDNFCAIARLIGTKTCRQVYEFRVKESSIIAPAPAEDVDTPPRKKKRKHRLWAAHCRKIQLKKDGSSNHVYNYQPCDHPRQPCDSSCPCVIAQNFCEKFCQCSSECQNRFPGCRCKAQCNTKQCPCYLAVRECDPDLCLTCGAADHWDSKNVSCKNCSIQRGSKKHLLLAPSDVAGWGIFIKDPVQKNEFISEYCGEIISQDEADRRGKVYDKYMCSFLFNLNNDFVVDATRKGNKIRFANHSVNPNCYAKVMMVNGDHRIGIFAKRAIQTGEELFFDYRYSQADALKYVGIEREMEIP
T1 sequence (O75530 whole entry partner): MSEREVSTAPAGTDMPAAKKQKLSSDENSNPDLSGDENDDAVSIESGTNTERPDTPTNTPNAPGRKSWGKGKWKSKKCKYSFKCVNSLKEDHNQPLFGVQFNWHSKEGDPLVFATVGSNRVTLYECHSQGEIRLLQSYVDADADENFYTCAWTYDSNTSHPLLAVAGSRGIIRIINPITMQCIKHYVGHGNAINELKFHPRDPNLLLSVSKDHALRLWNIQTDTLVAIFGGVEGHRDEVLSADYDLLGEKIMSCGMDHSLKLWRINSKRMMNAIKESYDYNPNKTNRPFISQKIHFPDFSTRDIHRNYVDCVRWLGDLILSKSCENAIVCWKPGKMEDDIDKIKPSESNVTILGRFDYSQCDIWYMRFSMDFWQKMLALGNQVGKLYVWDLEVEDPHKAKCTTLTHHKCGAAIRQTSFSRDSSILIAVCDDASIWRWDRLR
T1 sequence (Q15022 whole entry partner): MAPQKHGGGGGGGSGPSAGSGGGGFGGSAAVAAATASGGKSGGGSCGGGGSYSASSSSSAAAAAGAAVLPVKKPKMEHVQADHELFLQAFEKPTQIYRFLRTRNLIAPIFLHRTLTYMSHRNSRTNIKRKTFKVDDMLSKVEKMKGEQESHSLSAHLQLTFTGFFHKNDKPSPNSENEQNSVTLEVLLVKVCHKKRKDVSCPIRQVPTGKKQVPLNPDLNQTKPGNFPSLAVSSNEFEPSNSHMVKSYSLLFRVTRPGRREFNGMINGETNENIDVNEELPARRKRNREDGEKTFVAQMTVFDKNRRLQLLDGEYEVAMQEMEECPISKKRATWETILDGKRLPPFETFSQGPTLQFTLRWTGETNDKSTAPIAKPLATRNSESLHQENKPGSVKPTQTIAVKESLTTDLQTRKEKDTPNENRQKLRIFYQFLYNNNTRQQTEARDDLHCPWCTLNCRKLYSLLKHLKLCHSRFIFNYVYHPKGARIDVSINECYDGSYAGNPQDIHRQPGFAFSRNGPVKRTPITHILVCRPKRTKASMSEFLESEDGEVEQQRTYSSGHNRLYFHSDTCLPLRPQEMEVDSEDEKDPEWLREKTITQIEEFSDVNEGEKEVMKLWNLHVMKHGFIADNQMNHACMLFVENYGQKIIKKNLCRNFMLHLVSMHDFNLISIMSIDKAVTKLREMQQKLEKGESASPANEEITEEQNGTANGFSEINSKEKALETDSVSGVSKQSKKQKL
T2 sequence (Q61188 whole entry): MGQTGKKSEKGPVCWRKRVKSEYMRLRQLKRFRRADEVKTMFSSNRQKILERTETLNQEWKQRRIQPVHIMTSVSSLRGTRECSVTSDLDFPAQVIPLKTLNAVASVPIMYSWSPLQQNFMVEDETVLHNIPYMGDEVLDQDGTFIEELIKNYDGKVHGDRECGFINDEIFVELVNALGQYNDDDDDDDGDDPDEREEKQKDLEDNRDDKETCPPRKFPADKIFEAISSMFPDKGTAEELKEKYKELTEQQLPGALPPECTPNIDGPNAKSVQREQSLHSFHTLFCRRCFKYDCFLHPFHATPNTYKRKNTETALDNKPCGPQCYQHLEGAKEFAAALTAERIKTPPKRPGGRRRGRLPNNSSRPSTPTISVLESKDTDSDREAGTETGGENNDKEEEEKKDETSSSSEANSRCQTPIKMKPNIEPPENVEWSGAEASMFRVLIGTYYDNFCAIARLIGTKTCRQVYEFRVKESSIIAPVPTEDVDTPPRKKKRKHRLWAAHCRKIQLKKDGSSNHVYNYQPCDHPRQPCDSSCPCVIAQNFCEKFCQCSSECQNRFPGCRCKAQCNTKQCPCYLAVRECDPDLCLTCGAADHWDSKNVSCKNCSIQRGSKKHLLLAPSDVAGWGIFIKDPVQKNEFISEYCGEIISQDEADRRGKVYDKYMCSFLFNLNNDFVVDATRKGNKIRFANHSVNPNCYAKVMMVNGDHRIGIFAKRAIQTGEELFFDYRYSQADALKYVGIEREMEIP
T2 sequence (Q921E6 whole entry partner): as the sequence (O75530 whole entry partner) above
T2 sequence (Q80U70 whole entry partner): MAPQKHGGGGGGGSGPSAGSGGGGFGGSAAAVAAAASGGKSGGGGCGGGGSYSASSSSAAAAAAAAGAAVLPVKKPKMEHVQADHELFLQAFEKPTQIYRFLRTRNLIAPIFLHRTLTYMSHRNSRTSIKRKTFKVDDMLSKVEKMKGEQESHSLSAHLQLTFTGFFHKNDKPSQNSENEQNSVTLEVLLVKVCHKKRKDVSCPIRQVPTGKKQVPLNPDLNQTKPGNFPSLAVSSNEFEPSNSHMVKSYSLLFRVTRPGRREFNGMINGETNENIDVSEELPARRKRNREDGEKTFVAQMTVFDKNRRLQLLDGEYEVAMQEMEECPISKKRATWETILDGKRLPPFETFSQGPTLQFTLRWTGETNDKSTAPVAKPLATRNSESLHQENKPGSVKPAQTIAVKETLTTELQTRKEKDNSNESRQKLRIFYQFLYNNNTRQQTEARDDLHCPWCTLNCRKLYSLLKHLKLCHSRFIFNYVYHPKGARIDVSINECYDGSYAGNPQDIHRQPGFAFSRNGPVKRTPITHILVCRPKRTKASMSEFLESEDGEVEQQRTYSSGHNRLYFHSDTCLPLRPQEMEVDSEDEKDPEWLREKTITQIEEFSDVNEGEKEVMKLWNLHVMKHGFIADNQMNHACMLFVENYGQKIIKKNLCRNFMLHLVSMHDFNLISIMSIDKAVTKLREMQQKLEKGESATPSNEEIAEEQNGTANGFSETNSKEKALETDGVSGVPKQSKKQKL

With O=C(CCCCCCC(=O)Nc1ccccc1)NO [SAHA, suberoylanilide hydroxamic acid, reference compound] the inhibition (EZH2 [1]; A549, A549 tumor grown in vivo) was 52%, the “decrease of EZH2 enzyme activity/inhibition rate” value (EZH2 [1]; A549 tumor grown in vivo) was 53%*(A549)- and the inhibition (EZH2 [1]; MCF7, MCF7 tumor grown in vivo) was 52%. For the same molecule, the “decrease of EZH2 enzyme activity/inhibition rate” value (EZH2 [1]; MCF7 tumor grown in vivo) was 53%*(MCF7), the “decrease of EZH2 enzyme activity/inhibition rate” value (EZH2 [1]; MDA-MB231 tumor grown in vivo) was 55%*(MDA-MB231) and the inhibition (EZH2 [1]; MDA-MB-231, MDA-MB231 tumor grown in vivo) was 54%. For the same molecule, the “decrease of EZH2 enzyme activity/inhibition rate” value (EZH2 [1]; SMMC7721 tumor grown in vivo) was 49%*(SMMC-7721); and 49%*(SMMC7721);, the inhibition (EZH2 [1]; SMMC-7721, SMMC7721 tumor grown in vivo) was 48% and the inhibition (EZH2 [2]) was 50%.
CC[C@]1(O)C[C@H]2CN(CCc3c([nH]c4ccccc34)[C@@](C(=O)OC)(c3cc4c(cc3OC)N(C=O)[C@H]3[C@@](O)(C(=O)OC)[C@H](OC(C)=O)[C@]5(CC)C=CCN6CC[C@]43[C@@H]65)C2)C1 [Vincristine, reference compound] gave an IC50 [3] of 220 µM, an IC50 [4] of 130 µM and an IC50 [5] of 78 ± 30 µM. For the same molecule, the IC50 [6] was 37 µM, the IC50 ([7]; A549 cells) was over 70 µM and the IC50 ([7]; Hela cells) was over 70 µM. The IC50 ([7]; MCF7 cells) was over 70 µM, the IC50 ([7]; MDA-MB231 cells) was over 70 µM and the IC50 ([7]; PANC-1 cells) was over 70 µM. It also gave an IC50 ([7]; SMMC7721 cells) of over 70 µM, an EC50 (p53) of over 70 µM and an EC50 (p21) of over 70 µM. It also gave an EC50 (E-cadherin) of over 70 µM and an EC50 (Caspase3) of over 70 µM.
